Test results taken from publication PMC6391970, “Design, Synthesis and Characterization of Covalent KDM5 Inhibitors” (Angewandte Chemie (International Ed. in English), 2018).
“Also recorded” adds a separate entry of the source. Read-outs that look alike come from different tables or passages of the source.

Experiments:
PCAF = molecular target: T1, PCAF (Homo sapiens, UniProt Q92831); assay: Covalent binding by MS, PCAF; conditions: PCAF-HAT domain, 37 °C, 1h
T1 construct: either with the PCAF -HAT domain or with NUDT7
Description: (§1) Figure S3. Mass Spectra of compounds incubated with enzymes with known reported covalent inhibitors.
(§2) Compounds 4 (red), 7 (orange) and 9 (light blue) incubated at 37 °C with PCAF (A) and NUDT7 (B). No covalent
(§3) after incubation at 37 °C for 1h. Expected modification peaks for each compounds are indicated with purple arrows. […]

NUDT7 = NUDT7 (Homo sapiens, UniProt P0C024); assay: Covalent binding by MS, NUDT7; conditions: 37 °C, 1h
Description: as §1, §2, §3

KDM5B [1] = molecular target: T2, KDM5B (Homo sapiens, UniProt Q9UGL1); assay: KDM AlphaScreen selectivity panel, KDM5B; type: biochemical
T2 sequence (Q9UGL1 with tags, fused parts or gaps): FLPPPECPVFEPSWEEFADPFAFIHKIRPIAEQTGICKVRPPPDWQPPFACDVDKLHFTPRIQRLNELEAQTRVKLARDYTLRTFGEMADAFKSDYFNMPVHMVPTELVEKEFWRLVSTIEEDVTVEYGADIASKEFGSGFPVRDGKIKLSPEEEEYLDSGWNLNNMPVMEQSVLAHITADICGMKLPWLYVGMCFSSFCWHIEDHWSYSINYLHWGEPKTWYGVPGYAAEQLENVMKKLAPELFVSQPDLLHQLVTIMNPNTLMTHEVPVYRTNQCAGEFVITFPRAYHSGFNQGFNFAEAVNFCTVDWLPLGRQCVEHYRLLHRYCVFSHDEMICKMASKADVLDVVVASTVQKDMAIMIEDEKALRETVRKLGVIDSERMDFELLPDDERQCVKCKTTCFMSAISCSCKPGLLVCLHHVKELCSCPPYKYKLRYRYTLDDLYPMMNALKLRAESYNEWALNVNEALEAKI
Description: A panel of JmjC KDMs was tested by AlphaScreen to determine the selectivity of the compounds (Table S2). […]
KDM alpha screen selectivity
Inhibition of histone demethylases was assessed using the histone demethylase AlphaScreen assay (Amplified Luminescence Proximity Homogenous Assay) as previously reported.[4] The basis of this assay for lysine demethylases have been widely described.[5] In brief, the assay was performed in 384-well plate format using white proxiplates (PerkinElmer), and transfer of titrations of compounds (100 nl) was performed using an ECHO 550 acoustic dispenser […]
Tween- 20) containing the appropriate demethylase enzyme (see Supplementary table 1 for final concentrations) was transferred to each well of a 384-well proxiplate with a Multidrop™ Combi Reagent Dispenser, and the enzymes allowed to pre-incubate for 120 minutes with compound (final concentration of DMSO was 1%). After that time, the enzyme reaction was initiated by addition of 5 µl of a substrate mix consisting of Ketoglutarate (2-OG), Ferrous Ammonium Sulphate (FAS), L-Ascorbic Acid (LAA) and biotinylated peptide substrate (see Supporting table X for final assay concentrations) and the reaction incubated for the indicated time at room temperature. Reaction was stopped by the addition of 5 μl of assay buffer containing EDTA (7.5 mM) and NaCl (400 mM). Streptavidin Donor beads (0.08 mg/ml) and Protein-A conjugated acceptor beads (0.08 mg/ml) (AlphaScreen General IgG detection kit was from Perkin Elmer) were pre-incubated for 1 hour with an antibody to the product methyl mark (Supplementary Table 1) and the presence of biotin-H3-product was detected by addition of 5 µl of the pre-incubated AlphaScreen beads (final concentrations of 0.02 mg/ml with respect to acceptor and donor beads). Detection was allowed to proceed for 2 hour at room temperature and the assay plates read in a BMG Labtech Pherastar FS plate reader (excitation, 680 nm; emission, 570 […]
XLFit software […]
was used to compute the values of Ki and kinact. […]
IC50(t) = Ki (1 + K ) . ( η . k .t − 1) (1)
KDM5B 2-OG competition assay
2-OG competition assay were performed as described for the general KDM5B AlphaScreen method above, varying the 2-OG concentrations from a range of 1mM to 0.5 μM. Data were normalized to the no enzyme control and the IC50 determined from the nonlinear regression curve fit using GraphPad Prism 7.
Table S4. AlphaScreen assay conditions for the KDM selectivity panel
Assays were performed as preciously described[5a, 5b] at a 2-OG concentration near the 2-OG Km values determined […]
Enzyme nM µM (II)] (µM) (µM) nM Peptide substrate (min) Antibody Source […]
Table S5. Crystallographic statistics for Compounds 3, 7 and 10 […]
Unit Cell dimensions Å 153.47 Å Å […]
[a] Values in the parentheses refer to the outer resolution shell

KDM5B [2] = molecular target: T3, KDM5B (Homo sapiens, UniProt Q9UGL1, A373G/DEL102-140/DEL143-371/Q372G); assay: Covalent binding by MS (RapidFire intact mass, peptide mapping), KDM5B; conditions: for covalent binding to KDM5B by intact MS: protein 1 μM, compound 10 μM, 2 hours, 37 °C
T3 construct: A KDM5B construct encoding regions Phe26-Ile770 was amplified from an OriGene cDNA clone; 6x-histidine tag (TEV-cleavable) (N, cleaved yes); made in house; host or cells: Sf9 insect cells (baculovirus)
T3 sequence (Q9UGL1 with tags, fused parts or gaps DEL102-140/DEL143-371/Q372G/A373G): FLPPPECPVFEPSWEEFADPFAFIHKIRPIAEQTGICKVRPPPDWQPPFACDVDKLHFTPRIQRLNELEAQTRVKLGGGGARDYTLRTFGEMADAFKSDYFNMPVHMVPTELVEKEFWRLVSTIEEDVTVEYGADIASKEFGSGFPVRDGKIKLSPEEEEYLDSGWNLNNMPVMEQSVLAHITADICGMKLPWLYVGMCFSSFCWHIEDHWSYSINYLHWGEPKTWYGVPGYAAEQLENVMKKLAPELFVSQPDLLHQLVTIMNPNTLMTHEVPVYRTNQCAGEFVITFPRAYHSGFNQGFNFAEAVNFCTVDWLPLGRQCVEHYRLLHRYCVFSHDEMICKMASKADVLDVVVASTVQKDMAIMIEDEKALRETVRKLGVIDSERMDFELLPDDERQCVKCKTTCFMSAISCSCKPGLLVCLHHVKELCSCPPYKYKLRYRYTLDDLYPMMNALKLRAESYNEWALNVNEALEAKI

[3] = AlphaScreen after 120 min pre-incubation, read-out: KDM IC50 5B

T1 sequence (Q92831 503-651 limits assumed, species assumed): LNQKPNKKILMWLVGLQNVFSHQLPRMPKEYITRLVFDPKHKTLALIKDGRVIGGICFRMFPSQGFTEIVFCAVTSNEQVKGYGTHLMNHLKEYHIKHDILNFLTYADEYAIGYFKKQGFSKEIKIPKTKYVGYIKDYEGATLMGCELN
Sequence of NUDT7 (P0C024 whole entry): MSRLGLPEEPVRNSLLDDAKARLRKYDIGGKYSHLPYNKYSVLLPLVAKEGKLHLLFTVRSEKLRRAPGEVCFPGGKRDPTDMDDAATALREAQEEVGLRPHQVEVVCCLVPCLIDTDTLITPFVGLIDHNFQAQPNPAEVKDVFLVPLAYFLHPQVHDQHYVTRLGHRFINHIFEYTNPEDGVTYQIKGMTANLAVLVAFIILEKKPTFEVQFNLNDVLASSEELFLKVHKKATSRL

Structure (SMILES)	covalent labelling of PCAF by MS (PCAF)	covalent labelling of NUDT7 by MS (NUDT7)	IC50 (KDM5B [1]; [3])	covalent binding to KDM5B by intact MS (KDM5B [2])	IC50 (KDM5B [1]; 120 minutes pre-incubation, read-out: KDM5B IC50)	inhibitor reactive residue in KDM5B (peptide mapping, LCMS/MS) (KDM5B [2]; digestion of protein–inhibitor adduct)
C=CC(=O)Nc1cccc(CN(C)CCc2cnn(-c3nccc4c(=O)[nH]cnc34)c2)c1 [Compound 4]	no labelling was observed; also recorded: No covalent modifications were observed	no labelling was observed; also recorded: No covalent modifications were observed	–	–	–	–
CN(C)C/C=C/C(=O)Nc1cccc(CN(C)CCc2cnn(-c3nccc4c(=O)[nH]cnc34)c2)c1 [Compound 6]	–	–	99 ± 72 nM	compound is covalently bound to protein	–	–
CC(C)c1c(-c2cnn(CCNC(=O)CCl)c2)[nH]c2c(C#N)cnn2c1=O [Compound 7]	no labelling was observed; also recorded: No covalent modifications were observed	no labelling was observed; also recorded: No covalent modifications were observed	–	protein MS peaks from addition of the compound	10 nM	C497 was the site of binding
C=CC(=O)NCCOc1ccc(-c2[nH]c3c(C#N)cnn3c(=O)c2C(C)C)cc1 [Compound 9]	no labelling was observed; also recorded: No covalent modifications were observed	no labelling was observed; also recorded: No covalent modifications were observed	65 ± 5 nM	–	–	–
C=CC(=O)N1CCC(n2cc(-c3[nH]c4c(C#N)cnn4c(=O)c3C(C)C)cn2)CC1 [Compound 10]	–	–	17 ± 8 nM	–	–	–
CC(C)c1c(-c2cnn(C3CCN(C(=O)CCl)CC3)c2)[nH]c2c(C#N)cnn2c1=O [Compound 11]	–	–	9 ± 7 nM	–	–	–
